In ChEMBL document CHEMBL1129164, “Molecular design, chemical synthesis and biological studies of novel enediynes related to dynemicin a” (Bioorg Med Chem Lett, 1996):
Converted amounts (≈) assume the structure as drawn.

Experiments:
Type in all cases: functional, cell-based
[1] = tested on: MOLT-4; experiment: In vitro growth inhibition of Molt-4 (leukemia cell line) human tumor cells.
[2] = tested on: SK-BR-3; experiment: In vitro growth inhibition of SK-BR-3 (breast cancer cell line) human tumor cells.
[3] = tested on: COLO 205; experiment: In vitro growth inhibition of COLO 205 (colon cell line) human tumor cells.
[4] = tested on: HepG2; experiment: In vitro growth inhibition of Hep G2 ([…] line) human tumor cells.

Row | Compound | IC50 [1] [µg/mL] | IC50 [2] [µg/mL] | IC50 [3] [µg/mL] | IC50 [4] [µg/mL]
1 | CCOC(=O)N1c2ccccc2[C@@H]2O[C@@H]2C1C#Cc1ccccc1C#CCS(=O)(=O)c1ccccc1 (stereo partly drawn) | 4.64 (≈ 9.33 µM) | 9.23 (≈ 18.6 µM) | 9.59 (≈ 19.3 µM) | 8.91 (≈ 17.9 µM)
2 | CCOC(=O)N1c2ccccc2C(=O)CC1C#C/C=C\C#CCS(=O)(=O)c1ccccc1 (stereo not drawn) | 5.63 (≈ 12.6 µM) | 43.9 (≈ 98 µM) | 53 (≈ 119 µM) | 50.2 (≈ 112 µM)
3 | CCOC(=O)N1c2ccccc2[C@@H](O)[C@H](O)C1C#C/C=C\C#CCS(=O)(=O)c1ccccc1 (stereo partly drawn) | 10.2 (≈ 21.9 µM) | 46.7 (≈ 100 µM) | 49.7 (≈ 107 µM) | 57.8 (≈ 124 µM)
4 | CCOC(=O)N1c2ccccc2[C@@H](S(=O)(=O)c2ccccc2)[C@H](O)C1C#Cc1ccccc1C#CCS(=O)(=O)c1ccccc1 (stereo partly drawn) | 0.73 (≈ 1.14 µM) | 6.26 (≈ 9.79 µM) | 5.33 (≈ 8.33 µM) | 3.75 (≈ 5.86 µM)
5 | CCOC(=O)N1c2ccccc2[C@@H]2O[C@@H]2C1C#C/C=C\C#CCS(=O)(=O)c1ccccc1 (stereo partly drawn) | 5.5 (≈ 12.3 µM) | 19.5 (≈ 43.5 µM) | 26 (≈ 58 µM) | 9.01 (≈ 20.1 µM)
6 | C#CC1[C@H]2O[C@H]2c2ccccc2N1C(=O)OCC (stereo partly drawn) | 66.5 (≈ 274 µM) | > 100 | > 100 | > 100
7 | CCOC(=O)N1c2ccccc2C(=O)CC1C#Cc1ccccc1C#CCS(=O)(=O)c1ccccc1 (stereo not drawn) | 7.26 (≈ 14.6 µM) | 53.6 (≈ 108 µM) | 50.1 (≈ 101 µM) | 70 (≈ 141 µM)
